Experiments:
[1] = tested on: 5-HT-mediated head-twitch response; test: Head-Twitch Test (5-HTP-induced head-twitch response in mice); type: in vivo; conditions: oral, vs control vehicle
Experimental: The head-twitch response of mice is initiated by a variety of 5-HT mimetic drugs. The test was conducted in a manner similar to the procedure described by Heal, D. J., Philpot, J, O'Shaughnessy, K. M. and Davies, C. L.: The influence of central noradrenergic function on 5-HT-mediated head-twitch responses in mice: Possible implications for the actions of antidepressant drugs. Psychopharmacology 89: 414-420, 1986,
The head-twitch consisted of a characteristic rotation of the head, neck and shoulders of the mice. The test drug or vehicle was given by oral gavage. Thirty minutes later all animals were pretreated with carbidopa (25 mg/kg ip). Fifteen minutes following carbidopa administration, the mice were injected with 100 mg/kg ip of L-5-hydroxytryptophan (5-HTP). The animals were then left for 30 minutes before measurement of the head-twitch response in the following 2-minute period. For calculation of percent (%) response increase, the difference in drug head twitch number versus the control vehicle head twitch number is divided by the control head twitch and multiplied by 100.

[2] = tested on: MAO-A; test: MAO-A inhibiting activity in vitro, rat liver mitochondrial membranes; type: biochemical; conditions: 10 uM; 300 nM deprenyl to block MAO-B; 60 minutes preincubation, 37° C., pH 7.2; [14C] Serotonin
Experimental: The MAO-A activities in vitro were measured using Rat liver mitochondrial membranes as the source of the enzyme, according to a modified method of S. Otsuka & Y. Kobayashi: A Radioisotopic Assay for Monoamine Oxidase Determinations in Human Plasma. Biochem. Pharmacol. 13: 995-1006 (1964)
Rat liver mitochondrial membranes are preincubated with drug or vehicle, and subtype selective blocker (300 nM deprenyl to block the B type of MAO) for 60 minutes at 37° C. in 100 mM KPO4 (pH 7.2). [^14 C] Serotonin ([…]) is then added and incubated for 10 minutes. The reaction is stopped by the addition of 0.5 ml of 2M citric acid. Radioactive product is extracted into a toluene/ethyl acetate fluor and compared to control values by scintillation spectrophotometry in order to ascertain any interactions of test compounds with MAO-A.

[3] = Behavior Despair (Forced Swimming) test in rats (po); type: in vivo; conditions: 60 mg/kg (po), 4-minute test period, vs control vehicle
Experimental: (§1) Behavior Despair (Forced Swimming) test, a well known pharmacological screening method for depression, was conducted similary to the test described by Porsolt, R. D., Bertin, A and Jalfre, M.: Behavior despair in mice: A preliminary screening test for antidepressants. Arch. Int. Pharmacodyn. Ther. 229: 327-336, 1977.
Rats were pre-swam for 10 minutes the day before the test in 4000 mL glass cylinders containing water at 25° C. On the following day, rats were dosed orally (po) with either test compound or vehicle. One hour later each animal was placed in a glass cylinder and, following a 2-minute pretest, immobility was recorded for a 4-minute test period. For calculation of percent (%) reduction in immobility time, the difference in immobility time for control vehicle versus the drug is divided by the immobility time of the control vehicle and multiplied by 100.

[4] = Behavior Despair (Forced Swimming) test in mice (ip); type: in vivo; conditions: 30 mg/kg (ip), 15-minute test period, vs control vehicle
Experimental: as §1
Mice were dosed intraperitoneally (ip) with either test compound or vehicle. One hour later each animal was placed in a 1500 mL glass beaker containing water at room temperature. Mice were kept in the water for a period of 15 minutes and the duration of immobility observed within the 15-minute test period was recorded. A mouse was judged to be immobile if it floated motionlessly in the water making only those movements necessary to keep its head above the water. For calculation of percent (%) reduction in immobility time, the difference in immobility time for control vehicle versus the drug is divided by the immobility time of the control vehicle and multiplied by 100.

Compound: NC(=S)OCC1Cc2ccccc2CN1 (centres unmarked) [Example 14, 3-Thiocarbamoyloxymethyl-1,2,3,4-tetrahydroisoquinoline]
- % Response Increase ([1]; 8 mg/kg): 42%

Compound: NC(=O)OC[C@H]1Cc2ccccc2CN1 [Example 4, (R)-3-Carbamoyloxymethyl-1,2,3,4-tetrahydroisoquinoline]
- % Inhibition (MAO-A) [2]: 63.9%
- % Response Increase ([1]; 15 mg/kg): 258%

Compound: NC(=O)OC[C@@H]1Cc2ccccc2CN1 [Example 3, (S)-3-Carbamoyloxymethyl-1,2,3,4-tetrahydroisoquinoline]
- % Reduction (immobility time) [3]: 83%
- % Inhibition (MAO-A) [2]: 97.7%
- % Response Increase ([1]; 1 mg/kg): 238%

Compound: CN1Cc2ccccc2C[C@H]1COC(N)=O [Example 8, (S)-3-Carbamoyloxymethyl-N-methyl-1,2,3,4-tetrahydroisoquinoline]
- % Response Increase ([1]; 1 mg/kg): 77%

Compound: CNC(=S)OC[C@@H]1Cc2ccccc2CN1C [Example 18]
- % Reduction (immobility time) [4]: 33%

Compound: CNC(=S)OC[C@@H]1Cc2ccccc2CN1C(=O)Nc1ccccc1 [Example 17, (S)-3-(N-Methyl-thiocarbamoyloxymethyl)-N-(anilinocarbonyl)-1,2,3,4-tetrahydroisoquinoline]
- % Reduction (immobility time) [4]: 46%

Compound: NC(=O)OC[C@@H]1Cc2ccccc2CN1 [Example 5, (S)-3-Carbamoyloxymethyl-1,2,3,4-tetrahydroisoquinoline]
- % Response Increase ([1]; 3 mg/kg): 144%

Compound: CNC(=S)OC[C@@H]1Cc2ccccc2CN1 [Example 16, (S)-3-(N-Methylthiocarbamoyloxymethyl)-1,2,3,4-tetrahydroisoquinoline]
- % Reduction (immobility time) [4]: 56%

— US5955471A, “Tetrahydroisoquinolinealkanol derivatives and pharmaceutical compositions containing same” (SK Corporation, priority 1998, dated 1999)
